System: Botrytis cinerea
Assay: Hyphal growth of Botrytis cinerea in agricultural-chemical three-concentration-level layers-stacked culture media
Format: cell-based
Conditions: 25 degrees Celsius, seven days; for hyphae of Botrytis cinerea in the culture medium layer (microscope observation from side surface): potato dextrose agar
Source text: Botrytis cinerea that is one type of phytopathogenic fungus and a pathogenic fungus of tomato gray mold disease was inoculated into a potato dextrose agar culture medium (Difco (registered trademark) Potato Dextrose Agar). Next, the culture medium was left to stand still at a temperature of 25 degrees Celsius for one week. […] Next, the Botrytis cinerea-cultured potato dextrose agar culture medium in which hyphae sufficiently grew was left under irradiation with black light for not less than four days and left in a room-temperature environment for not less than two weeks to promote spore formation. […] Hereinafter, this aqueous solution is referred to as an “aqueous phytopathogenic fungus solution”.
Agricultural-chemical main-ingredient reagent Captan (manufactured by Tokyo Chemical Industry Co., Ltd. (TCI)) was added to potato dextrose agar culture media, with a charging amount (concentration) changed, to produce three layers of original culture media. Captan was prepared into a dimethyl sulfoxide (DMSO) (manufactured by SIGMA-ALDRICH) solution of Captan at a concentration 100 times a standard use concentration. The solution was charged into and mixed with the potato dextrose agar culture media respectively in amounts of 0 ml, 2 ml, and 10 ml per 1 L of the potato dextrose agar culture media to make three-concentration-level culture media respectively at a Captan concentration of 0 (no blending) and in an amount ⅕ a standard use amount of Captan and the standard use amount. In the present example, the potato dextrose agar culture media containing Captan at three concentration levels were stacked from bottom in an order of the Captan standard amount culture medium, the culture medium in an amount ⅕ the Captan standard amount, and the medium with no Captan blended, and the stacked body was cut out with a glass cylindrical, square, or rectangular shape forming member into a device of the example. […]

For O=C1C2CC=CCC2C(=O)N1SC(Cl)(Cl)Cl (stereo not drawn) [Captan], the “amount at which an effect against Botrytis cinerea was exerted (effective concentration)” value (layer where hyphal growth stopped) was “⅕”, the “hyphae of Botrytis cinerea in the culture medium layer (microscope observation from side surface)” value (lower layer 64, Captan blended in the standard amount) was “No hypha was confirmed” and the “hyphae of Botrytis cinerea in the culture medium layer (microscope observation from side surface)” value (second layer 63, Captan blended in the amount ⅕ the standard use amount) was “no hypha of Botrytis cinerea was confirmed”.
